This is an account of results in patent USRE47589E1, “Phosphoramidate compounds and methods of use” (NuCana plc, priority 2003, dated 2019).

The structures appear in SMILES notation.

Holding throughout (assay type): cell-based
Test [1] relates to human breast cancer cell line (MDA MB 231). As to the kind of experiment: MTT cytotoxicity assay, breast cancer cell line. Conditions: Homo sapiens, MDA-MB-231, read-out: EC50/μM Breast MDA MB231. How it is done: (§1) The compounds include those whose preparations are described above and compounds made by preparative methods corresponding to the methods described above.
(§2) Compounds were diluted over a range of concentrations and added to cells over 1 to 3 days. The cytotoxity was determined using a MTT assay at the end of each experiment.
A general note: Tetrazolium assays rely on reduction of a dye to a coloured formazan, in cell work by metabolically active cells.

The subject of test [2] is human colon cancer cell line (HT115). As to the kind of experiment: MTT cytotoxicity assay, colon cancer cell line. The following applies: Homo sapiens, HT115, read-out: EC50/μM Colon HT115, MTT assay, compounds added to cells over 1 to 3 days. How it is done: as §1, §2
In test [3] the test system is human prostate cancer cell line (PC-3). As to the kind of experiment: MTT cytotoxicity assay, prostate cancer cell line. The following applies: Homo sapiens, read-out: EC50/μM Prostate PC-3. How it is done: as §1, §2

As for `COC(=O)C1(NP(=O)(OC[C@H]2O[C@@H](n3cc(/C=C/Br)c(=O)[nH]c3=O)CC2O)Oc2ccc([N+](=O)[O-])cc2)CCCC1` (stereo partly drawn) [Example 19, (E)-5-(2-Bromovinyl)-2′-deoxyuridine-5′-[para-nitrophenyl-(methoxy-α,α-cycloleucinyl)]-phosphate], the EC50 is 56 µM in test [1], 38.2 µM in test [2] and 88 µM in test [3].
With `CCOC(=O)C1(NP(=O)(OC[C@H]2O[C@@H](n3cc(/C=C/Br)c(=O)[nH]c3=O)CC2O)Oc2ccc([N+](=O)[O-])cc2)CCCC1` (stereo partly drawn) [Example 20, (E)-5-(2-Bromovinyl)-2′-deoxyuridine-5′-[para-nitrophenyl-(ethoxy-α,α-cycloleucinyl)]-phosphate], the EC50 in test [1] was 13 µM; in test [2], 57.3 µM; in test [3] it was 15 µM.
In the case of `O=C(OCc1ccccc1)C1(NP(=O)(OC[C@H]2O[C@@H](n3cc(/C=C/Br)c(=O)[nH]c3=O)CC2O)Oc2ccc([N+](=O)[O-])cc2)CCCC1` (stereo partly drawn) [Example 21, (E)-5-(2-Bromovinyl)-2′-deoxyuridine-5′-[para-nitrophenyl-(benzoxy-α,α-cycloleucinyl)]-phosphate], the EC50 in test [1] came to 8.4 µM; in test [2], 17.2 µM; in test [3] it was 2.2 µM.
`COC(=O)C1(NP(=O)(OC[C@H]2O[C@@H](n3cc(/C=C/Br)c(=O)[nH]c3=O)CC2O)Oc2ccc(F)cc2)CCCC1` (stereo partly drawn) [Example 22, (E)-5-(2-Bromovinyl)-2′-deoxyuridine-5′-[para-fluorophenyl-(methoxy-α,α-cycloleucinyl)]-phosphate]: the EC50 in test [1] is 57 µM; in test [2], 59.7 µM; in test [3] it was 51 µM.
For `CCOC(=O)C1(NP(=O)(OC[C@H]2O[C@@H](n3cc(/C=C/Br)c(=O)[nH]c3=O)CC2O)Oc2ccc(F)cc2)CCCC1` (stereo partly drawn) [Example 23, (E)-5-(2-Bromovinyl)-2′-deoxyuridine-5′-[para-fluorophenyl-(ethoxy-α,α-cycloleucinyl)]-phosphate], in that order: 9.9 µM, 18.1 µM and 2.7 µM.
For `O=C(OCc1ccccc1)C1(NP(=O)(OC[C@H]2O[C@@H](n3cc(/C=C/Br)c(=O)[nH]c3=O)CC2O)Oc2ccc(F)cc2)CCCC1` (stereo partly drawn) [Example 24, (E)-5-(2-Bromovinyl)-2′-deoxyuridine-5′-[para-fluorophenyl-(benzoxy-α,α-cycloleucinyl)]-phosphate], in that order: 9.4 µM, 17 µM and 3.7 µM.
For `COC(=O)C(C)(C)NP(=O)(OC[C@H]1O[C@@H](n2cc(/C=C/Br)c(=O)[nH]c2=O)CC1O)Oc1ccccc1` (stereo partly drawn) [Example 26, (E)-5-(2-bromovinyl)2′-deoxyuridine-5′-[phenyl-(methoxy-α,α-dimethylglycinyl)]-phosphate], in that order: 41.1 µM, 77.9 µM and 1.5 µM.
With `CCOC(=O)C(C)(C)NP(=O)(OC[C@H]1O[C@@H](n2cc(/C=C/Br)c(=O)[nH]c2=O)CC1O)Oc1ccccc1` (stereo partly drawn) [Example 27, (E)-5-(2-bromovinyl)-2′-deoxyuridine-5′-[phenyl-(ethoxy-α,α-dimethylglycinyl)]-phosphate], the EC50 in test [1] turned out to be 218 µM; in test [2], 39.7 µM; in test [3], 76.1 µM.
For `CCOC(=O)C1(NP(=O)(OC[C@H]2O[C@@H](n3cc(/C=C/Br)c(=O)[nH]c3=O)CC2O)Oc2ccc(C(F)(F)F)cc2)CCCC1` (stereo partly drawn) [Example 29, (E)-5-(2-Bromovinyl)-2′-deoxyuridine-5′-[para-trifluorophenyl-(ethoxy-α,α-cycloleucinyl)]-phosphate], in that order: 45.6 µM, 15.1 µM and 4.3 µM.
For `COC(=O)C1(NP(=O)(OC[C@H]2O[C@@H](n3cc(/C=C/Br)c(=O)[nH]c3=O)CC2O)Oc2ccc(Cl)cc2)CCCC1` (stereo partly drawn) [Example 32, (E)-5-(2-Bromovinyl)-2′-deoxyuridine-5′-[para-chlorophenyl-(methoxy-α,α-cycloleucinyl)]-phosphate], in that order: 2.6 µM, 99.3 µM and 52.2 µM.
For `CCOC(=O)C1(NP(=O)(OC[C@H]2O[C@@H](n3cc(/C=C/Br)c(=O)[nH]c3=O)CC2O)Oc2ccc(Cl)cc2)CCCC1` (stereo partly drawn) [Example 33, (E)-5-(2-Bromovinyl)-2′-deoxyuridine-5′-[para-chlorophenyl-(ethoxy-α,α-cycloleucinyl)]-phosphate], in that order: 12 µM, 97.9 µM and 83.2 µM.
Take `O=C(OCc1ccccc1)C1(NP(=O)(OC[C@H]2O[C@@H](n3cc(/C=C/Br)c(=O)[nH]c3=O)CC2O)Oc2ccc(Cl)cc2)CCCC1` (stereo partly drawn) [Example 34, (E)-5-(2-Bromovinyl)-2′-deoxyuridine-5′-[para-chlorophenyl-(benzoxy-α,α-cycloleucinyl)]-phosphate]: the EC50 in test [1] is 3.9 µM; in test [2] it was 8.9 µM; in test [3], 6.3 µM.
For `COC(=O)[C@H](CC(C)C)NP(=O)(OC[C@H]1O[C@@H](n2cc(/C=C/Br)c(=O)[nH]c2=O)CC1O)Oc1ccccc1` (stereo partly drawn) [Example 35, (E)-5-(2-Bromovinyl)-2′-deoxyuridine-5′-[phenyl-(methoxy-L-leucinyl)]-phosphate], in that order: 18.5 µM, 7.7 µM and 75.7 µM.
Regarding `CC(C)C[C@H](NP(=O)(OC[C@H]1O[C@@H](n2cc(/C=C/Br)c(=O)[nH]c2=O)CC1O)Oc1ccccc1)C(=O)OCc1ccccc1` (stereo partly drawn) [Example 37, (E)-5-(2-Bromovinyl)-2′-deoxyuridine-5′-[phenyl-(benzoxy-L-leucinyl)]-phosphate], the values for the EC50 in test [1], in test [2] and in test [3] were 2.8 µM, 7 µM and 7.16 µM, respectively.
For `CC(C)C[C@H](NP(=O)(OC[C@H]1O[C@@H](n2cc(/C=C/Br)c(=O)[nH]c2=O)CC1O)Oc1ccc([N+](=O)[O-])cc1)C(=O)OCc1ccccc1` (stereo partly drawn) [Example 38, (E)-5-(2-Bromovinyl)-2′-deoxyuridine-5′-(para-nitrophenyl-(benzoxy-L-leucinyl)]-phosphate], in that order: 6.3 µM, 10.7 µM and 7.2 µM.
`CC(C)C[C@H](NP(=O)(OC[C@H]1O[C@@H](n2cc(/C=C/Br)c(=O)[nH]c2=O)CC1O)Oc1ccc(Cl)cc1)C(=O)OCc1ccccc1` (stereo partly drawn) [Example 39, (E)-5-(2-Bromovinyl)-2′-deoxyuridine-5′-[para-chlorophenyl-(benzoxy-L-leucinyl)]-phosphate]: the EC50 in test [1] came out at 4.3 µM; in test [2] it was 288 µM; in test [3], 193 µM.
Regarding `C[C@H](NP(=O)(OC[C@H]1O[C@@H](n2ccc(N)nc2=O)C(F)(F)C1O)Oc1ccc(Cl)cc1)C(=O)OCc1ccccc1` (stereo partly drawn) [Example 40, Gemcitabine-[para-chlorophenyl-(benzoxy-L-alaninyl)]-phosphate], the EC50 in test [1] was determined as 9.2 µM; in test [2] it was 16.1 µM; in test [3], 15.4 µM.
For `CC(C)(NP(=O)(OC[C@H]1O[C@@H](n2ccc(N)nc2=O)C(F)(F)C1O)Oc1ccc(Cl)cc1)C(=O)OCc1ccccc1` (stereo partly drawn) [Example 41, Gemcitabine-[para-chlorophenyl-(benzoxy-α,α-dimethylglycinyl)]-phosphate], in that order: 3.1 µM, 317 µM and 68.8 µM.
Turning to `COC(=O)C(C)(C)NP(=O)(OC[C@H]1O[C@@H](n2cc(/C=C/Br)c(=O)[nH]c2=O)CC1O)Oc1ccc(Cl)cc1` (stereo partly drawn) [Example 42, (E)-5-(2-bromovinyl)-2′-deoxyuridine-5′-[4-chlorophenyl-(methoxy-α,α-dimethylglycinyl)]-phosphate], the EC50 in test [1] was found to be 8.7 µM; in test [2] it was 183 µM; in test [3], 442 µM.
Take `CCOC(=O)C(C)(C)NP(=O)(OC[C@H]1O[C@@H](n2cc(/C=C/Br)c(=O)[nH]c2=O)CC1O)Oc1ccc(Cl)cc1` (stereo partly drawn) [Example 43, (E)-5-(2-bromovinyl)-2′-deoxyuridine-5′-[4-chlorophenyl-(ethoxy-α,α-dimethylglycinyl)]-phosphate]: the EC50 in test [1] came out at 5.9 µM; in test [2], 174 µM; in test [3], 1.15 µM.
`CC(C)(NP(=O)(OC[C@H]1O[C@@H](n2cc(/C=C/Br)c(=O)[nH]c2=O)CC1O)Oc1ccc(Cl)cc1)C(=O)OCc1ccccc1` (stereo partly drawn) [Example 44, (E)-5-(2-bromovinyl)-2′-deoxyuridine-5′-[4-chlorophenyl-(benzoxy-α,α-dimethylglycinyl)]-phosphate]: the EC50 is 2.3 µM in test [1], 4.5 µM in test [2] and 9.12 µM in test [3].
For `COC(=O)C(C)(C)NP(=O)(OC[C@H]1O[C@@H](n2cc(/C=C/Br)c(=O)[nH]c2=O)CC1O)Oc1ccc([N+](=O)[O-])cc1` (stereo partly drawn) [Example 45, (E)-5-(2-bromovinyl)-2′-deoxyuridine-5′-[4-nitrophenyl-(methoxy-α,α-dimethylglycinyl)]-phosphate], in that order: 9.4 µM, 24.7 µM and 223 µM.
In the case of `CCOC(=O)C(C)(C)NP(=O)(OC[C@H]1O[C@@H](n2cc(/C=C/Br)c(=O)[nH]c2=O)CC1O)Oc1ccc([N+](=O)[O-])cc1` (stereo partly drawn) [Example 46, (E)-5-(2-bromovinyl)-2′-deoxyuridine-5′-[4-nitrophenyl-(ethoxy-α,α-dimethylglycinyl)]-phosphate], the EC50 in test [1] is 2 µM; in test [2], 224 µM; in test [3], 82.4 µM.
